Here are results for one compound from PMC4684281, “Antitumor Effects and Mechanism of Novel Emodin Rhamnoside Derivatives against Human Cancer Cells In Vitro” (PLoS ONE, 2015).

Read-outs that look alike come from different tables or passages of the source.

A word on the IC50: it is the concentration needed to halve the response being measured. By inhibition is commonly meant the drop in the measured response relative to a control, in per cent.

Type in all cases: cell-based, Human
The test system of one experiment is OVCAR-3 cells. As to the kind of experiment: MTT cell viability assay, OVCAR-3. The note with it: for IC50: OVCAR-3. The method, then:
The viability of cancer cells was evaluated by MTT assay. Briefly, cells were inoculated in 96-well culture plates at the density of 1×10^4/well with complete medium containing 10% fetal calf serum in a final volume of 0.2 mL. Cells were incubated at 37°C for at least 24 hours to allow optimal attachment. When the cells reached 60% confluence, they were treated with Cisplatin, HCPT and emodin rhamnopyranosides derivatives in various concentrations, and incubated in a humidity-controlled 5%CO2 incubator at 37°C for 72 hours. Medium were exchanged once every 24 hours. Cell control group and blank group were set up in the same manner, with each group having six parallel wells. Cell survival was assessed by directly adding 22 μL of 5mg/mL MTT to 0.2 mL medium. After three hours, the formazan precipitate was dissolved in 200μL isopropanol per well, and completely mixed under room temperature. Afterwards, the optical density of each well was detected at 570 nm wavelength by iMark microplate reader (Bio-rad,USA). This experiment was repeated at least three times.
For orientation: Formazan colour is commonly taken as a measure of viable cells.

The subject of experiment [1] is Cyto C gene expression of HepG2 cells. As to the kind of experiment: RT-qPCR gene expression, Cytochrome C. The note with it: 48 hours, control 1.030±0.280. The method, then:
HepG2 cells were inoculated in 6-well culture plates at a density of 3×10^5 cells/well, and allowed to attach at 37°C for 24 hours. Then cells were treated with specific concentrations of EM-d-Rha and incubated in a humidified incubator supplied with 5% CO2 at 37°C for 48 hours. Medium were changed once every 24 hours. Afterwards, mRNA was extracted from every group using E.Z.N.A.^TM Total RNA Kit II according to the manufacturer’s instructions. The extracted mRNA was dissolved in 20 μL ddH2O (Qiagen) containing diethyl pyrocarbonate (DEPC). The concentration of mRNA was quantified with a NanoDrop ND-100 device (Thermo Fisher Scientific). cDNA was synthesized using 3μg of the extracted mRNA from each sample with PCR system (BIO-RAD,USA). The cDNA synthesis reaction was prepared according to the manufacturer’s instructions by mixing 3μg mRNA, 4.0μL 5× MMLV buffer, 3 μL oligodT18, 0.5μL 10 mM dNTP solution, 0.8μL RNase inhibitor, 3.7μL MMLV Rtase, and 6.0μL DEPC ddH2O in PCR tubes. The reaction condition was 5min at 70°C, 60 min at 42°C and 10min at 4°C. The products were used for subsequent RT-qPCR analysis. The level of mRNA expression was measured by RT-qPCR using a CFX96^TM C1000 Real-Time PCR System (BIO-RAD, USA).The primers were designed using idt.dna software system (http //www.idtdna.com). The specific primers were: Cyto C: 5′-[…]-3′ (forward), 5′- […] -3′ (reverse); Caspase 3: 5′- CCTACAGCCCATTTC TCCATAC-3′ (forward), 5′-[…]-′ (reverse); β-actin: 5′-[…]-3′ (forward), 5′-[…]-3′ (reverse). The product sizes of Cyto C, Caspase 3 and β-actin were 91bp, 125bp and 107bp, respectively. The PCR reaction was performed in a final volume of 20μL using an optical 96-well tray. The reaction mixture consisted of 10μL of SYBR I green Mix/ GoTaq®qPCR
Master Mix (Promega), 0.3μL of each primer (10μM), and 1.0 μL cDNA template. PCR cycling condition was one cycle of 5min at 95°C, 39 cycles and each of which was consisted of 15 seconds at 95°C, 15 seconds at 62°C and 30 seconds at 72°C, with final extension at 60°C for 5 Seconds. The thermal melt parameter was investigated to assess the homogeneity of PCR. Each sample was analyzed in quadruplicate and mean was used for further analysis. The mRNA expression levels of each sample were quantified by measuring the threshold cycle (CT) values of genes. The relative values of the target gene expression were calculated according to CT values of the target genes and the reference gene (β-actin) by applying Livak and Schmittgen method. That is, it equals to 2^-Δ ΔCT, ΔCT equals the mean of Ct for target gene minus the mean of Ct for β-actin gene, and ΔΔCT equals ΔCT of the treated group minus ΔCT of the control group.
(Real-time PCR tracks product formation cycle by cycle.)

Another experiment concerns HepG2 cells. The experiment can be described thus: DNA ladder assay. As to conditions: HepG2, 2.5μM, 5.0μM and 10.0μM. The method, then: DNA ladder formation is an important criterion to determine cells apoptosis. To confirm the apoptosis induction effect, the analysis of DNA fragmentation was conducted. HepG2 cells in logarithmic growth phase were inoculated in 10cm diameter culture plates at a density of 5×10^5 cells with 12 mL complete medium containing 10% fetal calf serum, and allowed to attach at 37°C for 24 hours. Afterwards, cells were treated with EM-d-Rha and Cisplatin at a specific concentration. Cells were cultured and harvested as described previously. Finally, DNA of all samples was extracted using the apoptosis DNA ladder detection kit following the manufacturer’s instructions. The DNA fragmentation was assayed by electrophoresis on a 1.5% agarose gel containing […] ethidium bromide (EtBr) at 5V/cm for 2.5hours and photographed under ultraviolet. The size of the DNA fragmentation was compared with the marker (molecular weight standard).

Consider `CC(=O)O[C@@H]1[C@@H](O[C@@H]2O[C@@H](C)[C@H](O)[C@@H](OC(C)=O)[C@H]2OC(C)=O)[C@H](C)O[C@@H](Oc2cc(O)c3c(c2)C(=O)c2cc(C)cc(O)c2C3=O)[C@@H]1OC(C)=O` [S-8, 3-(2”,3”-Di-O-acetyl-α-L-rhamnopyranosyl-(1→4)-2’,3’-di-O-acetyl-α-L-rhamnopyranosyl)-emodin], for which the IC50 with OVCAR-3 cells (Homo sapiens, MTT at 72h, n=3, mean±S.E.M, read-out: IC50 for EM-d-Rha, OVCAR-3) is 2260 ± 920 nM; in the experiment with OVCAR-3 cells (Homo sapiens, MTT, 72 hours, read-out: IC50 values, OVCAR-3), 0.61 µg/mL. Also, the inhibition at 0.1 µM in the experiment on OVCAR-3 cells (Homo sapiens, OVCAR-3, 0.1μM, MTT 72h, read-out: The inhibition rate of EM-d-Rha) was 1.4 ± 0.21%. In addition, the inhibition at 0.5 µM in the experiment with OVCAR-3 cells (Homo sapiens, OVCAR-3, 0.5μM, MTT 72h, read-out: The inhibition rate of EM-d-Rha) came out at 2.95 ± 1.12%. For the same compound, in the experiment with OVCAR-3 cells (Homo sapiens, OVCAR-3, 2.5μM, MTT 72h, read-out: The inhibition rate of EM-d-Rha), the inhibition at 2.5 µM amounted to 66 ± 1.27%. Besides, in the experiment on OVCAR-3 cells (Homo sapiens, OVCAR-3, 12.5μM, MTT 72h, read-out: The inhibition rate of EM-d-Rha), the inhibition at 12.5 µM was found to be 83.6 ± 1.15%. Besides, in the experiment with OVCAR-3 cells (Homo sapiens, OVCAR-3, 62.5μM, MTT 72h, read-out: The inhibition rate of EM-d-Rha), the inhibition at 62.5 µM was 90.64 ± 0.74%. Moreover, the “Decrease of IC50 compared to the IC50 of emodin, OVCAR-3” value in the experiment with OVCAR-3 cells (from Table 1) amounted to 42.3 fold. Further, the “Cytochrome C mRNA expression level relative to controls” value was determined as 1.009±0.475 fold in experiment [1] (HepG2, 0.70μM); 1.086±0.727 fold in experiment [1] (HepG2, 1.40μM); 3.258±2.402 fold in experiment [1] (HepG2, 2.80μM, listed as EM-d-Rha); 5.625±4.950 fold in experiment [1] (HepG2, 5.60μM). Also, in the experiment on HepG2 cells, the “DNA fragmentation (agarose gel electrophoresis)” value is recorded as “typical ladder or fragmentation shape”.
